Measured values published in patent US5527940A, “Methanediphosphonate derivative, its manufacturing process and its pharmaceutical applications” (Toray Industries, Inc., priority 1991, dated 1996).

Experiments:
adjuvant arthritis model = assay: Adjuvant Arthritis Test; type: in vivo, 7 week old female Lewis rats; settings: subcutaneous daily days 8-21
Procedure: Multiple arthritis resembling human chronic articular rheumatism occurs when tubercule bacillus adjuvant is injected into rats. The antiinflammatory, antirheumatic and bone metabolism improving action of compounds of the present invention were investigated according to the following procedure using this adjuvant arthritis model.
0.1 mg of dried non-viable Mycobacterium butyricum cells were suspended in 0.1 ml of liquid paraffin followed by injection into the skin of the left hind limb of 7 week old female Lewis rats. The compounds obtained in the Examples were dissolved in sterilized distilled water and administered subcutaneously every day for two weeks from the 8th to 21st days after injection of adjuvant. During that time, the volumes of the right and left hind limbs were measured and the swelling rate was calculated according to the following formula: [formula]
Moreover, the swelling inhibition rates were also determined according to the following formula, and those values are shown in Table 1. [formula]
Soft X-ray radiographs were taken of the left and right hind limbs of the animals following sacrifice on day 22. The degree of bone destruction at five locations in the left and right hind limbs was evaluated based on the soft X-ray radiographs scoring those results among 5 ranks. Moreover, the bone destruction inhibition rate was calculated using the following formula, and those values are shown in Table 1. [formula]
Those results that were significant at a level of significance of P<0.001 with respect to a control group administered only sterilized distilled water according to the Student's t-test and Chukey's multiple comparison method were indicated with three asterisks (***), those results that were significant at a level of significance of P<0.01 were indicated with two asterisks (**), and those significant at a level of significance of P<0.05 were indicated with one asterisk (*).
The swelling inhibition rates for Example 7 and Example 33 are the values for day 14 and day 21.

[1] = system: IL-1 stimulated release of proteoglycan from cartilage cells; assay: Proteoglycan release from IL-1 stimulated rabbit knee joint cartilage cells (35S label); type: cell-based, New Zealand White rabbits; settings: 100 μM compound, IL-1β 30 units/ml, 24 hours
Procedure: When cartilage from a rabbit knee joint is isolated and cultured followed by IL-1 stimulation, proteoglycan of glycoprotein, the major component of cartilage, is released. The IL-1 inhibitory action of compounds of the present invention was measured as described below using this action as an index.
Exsanguination was performed on 3 week old, male New Zealand White rabbits having body weights of 250-300 g under diethyl ether anesthesia, after which the knee joints were removed. The cartilage portions of the knee joints were removed with a scalpel and immersed in a CMF solution comprising 0.14M sodium chloride, 4 mM potassium chloride, 0.4 mM sodium dihydrogen phosphate, 12 mM sodium bicarbonate, 0.2 mM potassium dihydrogen phosphate and 11 mM glucose. This cartilage was then placed in 0.1% EDTA and incubated for 20 minutes at 37° C. […]
The cell layer was dissolved by adding 200 μg of pronase E and treating for 24 hours at 37° C. […] The precipitated proteoglycan was collected in a glass filter, added to a liquid scintillator and counted with a liquid scintillation counter. […]
Each of the resulting counts were expressed as a percentage of the count obtained from the initially added inorganic sulfuric acid. […]

CSc1ccc(SC(P(=O)(O)O)P(=O)(O)O)cc1 [Example 2, (4-methylthiophenyl)thiomethanediphosphonic acid]
Bone Destruction Inhibition Rate with respect to control group, Day 22 (adjuvant arthritis model; Day 22, soft X-ray score of left and right hind limbs): 62.3%
Swelling Inhibition Rate with respect to Control Group, Day 16, Left (adjuvant arthritis model; left (adjuvant-injected) hind limb, Day 16): 96.0%
Swelling Inhibition Rate with respect to Control Group, Day 21, Left (adjuvant arthritis model; left (adjuvant-injected) hind limb, Day 21): 122.5%
Swelling Inhibition Rate with respect to Control Group, Day 16, Right (adjuvant arthritis model; right hind limb, Day 16): 9.1%
Swelling Inhibition Rate with respect to Control Group, Day 21, Right (adjuvant arthritis model; right hind limb, Day 21): 30.6%
Proteoglycan count, Cell Layer (percentage of the count from initially added inorganic sulfuric acid) ([1]; cell layer): 0.28 ± 0.019%
Proteoglycan count, Cell Supernatant (percentage of the count from initially added inorganic sulfuric acid) ([1]; cell supernatant): 0.74 ± 0.061%
